89 compounds from a melting point compilation (Tetko et al.; mined from patent text by program, amines drawn as free bases though some values may be those of a salt) can be followed below.

Structures are written as SMILES. Bounds are passed on as bounds.

Consider `CC(=O)Oc1cc(C=CC(=O)c2ccccc2)cc([N+](=O)[O-])c1OC(C)=O`, for which the melting point is 183 to 185 °C.
`CNc1nc(N(C)C)nc2c1nnn2Cc1ccccc1F` gave a melting point of 199 to 200 °C.
The compound `Cc1ccc(-c2nc3ccc(C)cn3c2CC(=O)O)cc1` displayed a melting point of 228 to 230 °C.
For the compound `CCCC1=C(C#N)C(c2cccc(N3CCOCC3)c2)c2c[nH]nc2N1` (centres undefined), the melting point lay within 196 to 200 °C.
Compound `CCCCCCC1CCC(=O)N1c1ccc(Cl)c(NC2=NN(c3c(Cl)cc(Cl)cc3Cl)C(=O)C2)c1` (centres undefined) gave a melting point of 224 to 227 °C.
For `CC1CCCN(c2ccc([N+](=O)[O-])cc2C(=O)c2ccc(Cl)cc2)C1` (centres undefined) the value was 112 °C; for `CCOC(=O)N1C[C@H](O)C[C@H]1CCOc1ccc(Br)cc1CCc1ccccc1`, 63 to 66 °C.
`Cc1ncn(-c2nc(-c3ccc(Cl)cc3)c(CCC(=O)O)o2)c1C` showed a melting point of 225 to 226 °C.
For `Cc1ccccc1NS(=O)(=O)c1ccc(NC2=C(Cl)C(=O)c3ccccc3C2=O)cc1` the value was 265 to 266 °C; for `CC(C)(C)c1cc(CCc2cc(F)ccc2NC(=O)NC2CCN(Cc3ccccc3)CC2)cc(C(C)(C)C)c1O`, 108 to 109 °C.
The result for `CCCCCCC(O)CCCCCCCC(COC(C)=O)(COC(C)=O)NC(C)=O` (centres undefined) reads 82 to 84 °C.
Compound `OCC1OC(n2c(Cl)nc3cc(Br)ccc32)C(O)C1O` (centres undefined) displayed a melting point of 154 to 155 °C.
With `O=C(Nc1ccncc1)c1ccc(OC(F)F)c2oc3ccccc3c12`, the melting point worked out at 230 °C.
The compound `CN(CC#N)Cc1nc(-c2cc(C(C)(C)C)c(O)c(C(C)(C)C)c2)cs1` yielded a melting point of 150 to 156 °C.
Regarding `Cc1nc(COC(=O)c2cccnc2C#N)cs1`, the melting point came to 93 °C.
With `CC(=O)Nc1ccc(C2=NNC(=O)CC2)cc1[N+](=O)[O-]`, the melting point is 223 °C.
On to `O=Cc1cc(Cl)cc(C(=O)O)c1O`, for which the melting point was determined as 218 °C.
As for `CCCCc1nn(-c2ccc([N+](=O)[O-])cc2C(F)(F)F)c(=O)[nH]1`, the melting point lay within 126 to 128 °C.
As to `CC(=O)Oc1ccc(OCc2ccccc2)cc1CC(Br)CBr` (racemic), the melting point was 72 to 74 °C.
The result for `CCCCCCCCCCCc1nnc2n1-c1ccccc1C(c1ccc(Cl)cc1)NC2` (centres undefined) reads 94 to 95 °C; that for `CC1(C)CCC(C)(C)c2nc3c(nc21)CCc1c(-c2ccc(C(=O)O)cc2)nn(Cc2cccnc2)c1-3`, 250 to 252 °C.
In the case of `Cn1c(COc2ccc(CC3SC(=O)NC3=O)cc2)nc2ccc(Oc3ccc(NC(=O)NC45CC6CC(CC(C6)C4)C5)cc3)cc21` (centres undefined), the melting point lay in the range of 164 to 167 °C.
The compound `CN(c1ccc([N+](=O)[O-])cc1C(F)(F)F)c1c(Cl)c(Cl)nc(Cl)c1Cl` displayed a melting point of 152 to 155 °C.
The result for `CNC(=O)n1nc(Oc2c(Cl)cc(C(F)(F)F)cc2[N+](=O)[O-])cc1C` reads 140 to 142 °C; that for `CS(=O)(=O)NC1CCN(c2nc(N)nc(-c3cc(Cl)ccc3Cl)n2)C1` (centres undefined), 102 to 107 °C; that for `CS(=O)(=O)Nc1c(CCCCCCC(=O)O)ccc2ccccc12`, 122 to 127 °C.
The result for `NC(=O)C1CCN(C(=O)CNC(=O)CNC(=O)CN2CCCC2=O)CC1` reads 225 to 227 °C; that for `COc1ccc2ccc(O)c(Cl)c2c1`, 76 to 78 °C.
In the case of `COc1cc(Cl)cnc1OCC#Cc1ccc(Cl)nc1`, the melting point amounted to 94 °C.
Compound `N#Cc1ccc(-c2ccc(-c3cccs3)s2)s1` yielded a melting point of 122 to 125 °C.
`O=C(NN=Cc1c(O)ccc2cc(O)ccc12)c1cc2ccccc2cc1O` displayed a melting point of more than 280 °C.
Take `CC(C)(C)OC(=O)NCCCc1ccc2c(n1)NCCC2`: the melting point fell in the range of 95.2 to 96.3 °C.
Regarding `CCCOc1ccc(S(=O)(=O)N2CCOCC2)cc1-c1nc2c([nH]1)c1nncn1c(=O)n2CCC`, the melting point was 169 °C.
`CC(=NOCc1ccccc1)C(C)Oc1ccccc1NC(=O)c1cccnc1Cl` (centres undefined) returned a melting point of 53 to 55 °C.
Consider `CCCCn1cnnc1SCC(=O)c1ccc(OC)cc1`, for which the melting point was in the range of 79 to 82 °C.
For the compound `Cc1ccc(-c2nc3ccccc3[nH]2)cn1`, the melting point turned out to be 266 °C.
On to `COc1ccc(Cn2c(C)cc3c(=O)[nH][nH]c(=O)c32)cc1`, for which the melting point came out at 300 °C.
`NSc1nc(-c2ccccc2Cl)ns1` displayed a melting point of 143 to 145 °C.
For `CC12CCC3c4cccc([N+](=O)[O-])c4CCC3C1CCC2O` (centres undefined) the value was 151 to 152 °C; for `Cc1ccc(S(=O)(=O)OCCCCCCCCCOc2cccc(C(N)=O)c2)cc1`, 78 to 80 °C; for `CCOc1ccc(C2=NC[C@@H](O)[C@H](c3ccccc3)O2)cc1` (racemic), 124 °C.
For `COc1cc(C)c2c(c1)-c1c([nH]c3ccccc13)C2` the value was 208 °C.
As to `CS(=O)(=O)c1cc(N)ccc1OC(F)(F)F`, the melting point lay in the range of 106 to 109 °C.
On to `O=C(O)CCC(=O)c1cccc(-n2ccnc2)c1`, for which the melting point is 140 to 142 °C.
With `O=C(O)CCc1ccc(CO)cc1`, the melting point was 124 to 126 °C.
For `CC#Cc1cn(C2OC(CO)C(O)C2O)c(=O)[nH]c1=O` (centres undefined), the melting point is 225 to 227 °C.
Compound `CCCSc1nc(NC2CC2c2cccc(N)c2)c2nnn(C3CC(O)C(O)C3O)c2n1` (centres undefined) gave a melting point of 105 to 107 °C.
`COc1cc(C(=O)N2Cc3cccn3Cc3ccccc32)ccc1-c1ccccc1C(F)(F)F` showed a melting point of 146 to 148 °C.
`C(=C1COc2ccc3c4c(nnc1c24)C(=Cc1ccccc1)CO3)c1ccccc1` had a melting point of 242 °C.
For `CN(c1cccc2c(Cl)c(-c3nccs3)[nH]c12)S(=O)(=O)c1cccs1`, the melting point lay within 222 to 223 °C.
The result for `Clc1cc(-c2ccccc2)nc(Cl)n1` reads 80 to 85 °C.
Take `COc1ccc(C(=O)O)cc1NC(=O)c1cc(C(C)(C)C)c(O)c(C(C)(C)C)c1`: the melting point fell in the range of 259 to 261 °C.
Take `CCOC(=O)C(O)=Cc1cc(CCc2ccc(F)cc2)ccn1`: the melting point was 129 to 130 °C.
Consider `Cc1nc(OCC=C(F)F)c(C#N)c(N2CCc3ccccc3CC2)n1`, for which the melting point fell in the range of 158 to 159 °C.
In turn, `O=c1c(Cl)c2sc3ccccc3nc-2c2ccccc12` registered a melting point of 230 to 231 °C.
For the compound `Cn1nc(-c2cccc(Cl)c2)cc1C(=O)O`, the melting point lay within 164 to 167 °C.
In turn, `CC1COC(Nc2ccccc2)(c2ccnc(C(=O)c3ccc(Cl)cc3)c2)O1` (centres undefined) gave a melting point of 125 to 126 °C.
`Cc1nnc(CN(C)C)n1-c1ccc(Br)cc1C(=O)c1ccccn1` returned a melting point of 127 to 128 °C.
For `CC(=O)Sc1ccc(I)cc1`, the melting point was 56 to 57 °C.
`CC(Oc1cccc(Oc2c(Cl)cc(C(F)(F)F)cc2Cl)c1)(C(=O)O)[N+](=O)[O-]` (centres undefined) had a melting point of 146 °C.
For the compound `O=C(O)CCC(c1ccccc1)c1ccccc1F` (centres undefined), the melting point worked out at 105 °C.
The compound `Brc1nc2ncnc(NCc3ccccc3)c2[nH]1` displayed a melting point of 233 to 235 °C.
For `CC(C#CCCc1ccccc1)N(O)C(N)=O` (centres undefined), the melting point lay in the range of 113 to 114 °C.
Compound `CN(C)C=C1N=C(c2ccccc2Cl)c2cc(I)ccc2N(C)C1=O` came in with a melting point of 182 to 184 °C.
With `CC(=O)OCc1ccc(N(c2ccccc2)c2ccccc2)cc1`, the melting point was 86 to 89 °C.
As for `COC(=O)N1CC(=O)N(C)c2ccc(F)cc21`, the melting point lay in the range of 206 to 208 °C.
Turning to `C=CCOC(=O)c1ccc(N=C(SC)c2ccc(OC)c(C34CC5CC(CC(C5)C3)C4)c2)cc1`, the melting point lay within 50 to 53 °C.
The compound `O=S1(=O)c2ccccc2C=Cc2ccc(C=Nc3ccccc3)cc21` came in with a melting point of 184 to 185 °C.
The compound `NC(=O)C(Nc1ccc2ccccc2c1)c1c(Cl)cccc1Cl` (centres undefined) had a melting point of 158 °C.
Compound `CCOC(=O)N1CCC(c2noc(-c3cc(Cl)c(N)c4c3OCC4)n2)CC1` displayed a melting point of 162 °C.
The result for `COCC1(C)CCOc2ccc(C#Cc3ccc(C(=O)O)cc3)cc21` (centres undefined) reads 202 to 203 °C.
The result for `CCCc1nc(C(C)(C)O)c(C(=O)O)n1Cc1ccc(-c2ccccc2-c2nnn[nH]2)cc1` reads 166 to 169 °C.
For the compound `CCCCC1OC(=O)c2cc(NC3CCCCC3)ccc21` (centres undefined), the melting point fell in the range of 123 to 124 °C.
For `COC(=O)c1ccc2c(c1)Sc1ccccc1NC2` the value was 149 to 150 °C.
The result for `O=C(OCc1ccccc1)C(C(=O)OCc1ccccc1)n1cccc1` reads 48.5 to 49 °C; that for `O=S(=O)(c1ccccc1)c1cncc(OC2SCC(O)C(O)C2O)c1` (centres undefined), 86 °C.
On to `C[C@H](CSC(=O)c1ccc(Cl)c(S(N)(=O)=O)c1)C(=O)O`, for which the melting point lay in the range of 152 to 153 °C.
Regarding `O=C1NC(=O)C2(O1)C(=O)N(Cc1ccc(Cl)c(Cl)c1)c1c(F)cccc12` (centres undefined), the melting point lay within 101 to 102 °C.
`Cc1cc2nc(NC(=O)C(C)(C)C)nc(Cl)c2[nH]1`: the melting point was 162 to 163 °C.
Take `CC(C)(C)C(=O)Oc1ccc(N=Nc2ccc(OC(=O)C(C)(C)C)cc2)cc1`: the melting point fell in the range of 185 to 188 °C.
The result for `COc1cc(Nc2nc3cccc(-c4ccc(S(C)(=O)=O)cc4)c3o2)cc(OC)c1OC` reads 205 to 207 °C; that for `CC1(C)CCCC(C)(C)N1Cc1ccc2cc(NC(=O)c3ccc(-c4ccccc4)cc3)ccc2n1`, 200 to 201 °C; that for `Cc1cccc2ncc(-c3nnnn3C)c(=O)n12`, 232 to 234 °C.
For `Oc1cccc2c1CC(NC1CC1)CO2` (centres undefined) the value was 147 to 148 °C.
Compound `C[C@@H]1[C@H](c2ccccc2)OC(=O)N1C(=O)CCc1ccccc1` registered a melting point of 99 to 100 °C.
With `CCC1N=C(c2ccccc2Cl)c2cc(CCC(=O)OC)sc2NC1=O` (centres undefined), the melting point was in the range of 187 to 189 °C.
In the case of `CC1(COc2ccc(CC3SC(=O)NC3=O)cc2)CCc2cc(C(=O)O)ccc2O1` (centres undefined), the melting point lay in the range of 223 to 225 °C.
For `CCCc1ccc2nc(N)sc2c1` the value was 120 to 122 °C; for `COc1cc(COc2nn(-c3ccccc3)cc2C(N)=O)ccc1OCc1nc(-c2ccco2)oc1C`, 175 to 176 °C.
